Measured values published in PMC12648310, “Modular Assembled Targeting Chimera Enables Multimodal Targeted Protein Degradation” (JACS Au, 2025).
Like-named read-outs stand apart in the source and are kept apart here.

Experiments:
BRD4 = target: T1, BRD4 (Homo sapiens, UniProt O60885); test: Immunoblot of BRD4 degradation in MDA-MB-231 cells; format: cell-based; conditions: component without its click partner
T1 construct: Western blot analysis of BET protein levels was performed across these 11 module assembly combinations; endogenous in cells; host or cells: MDA-MB-231
Method: deprotection under General Procedure I, followed by condensation with compound 4 under General Procedure II, yielded AN2-C3-Tz as a purple oil in 60% yield (over two steps from 25).
The full NMR and MS spectra of the synthesized degrader compounds were shown in Appendix A and B, respectively. The degrader compounds were dissolved in DMSO as 10 mM stock solution and stored at -20℃, freeze-thaw cycle was avoided. Inhibitors for bioassays were purchased from […]
Cell culture and drug treatment
The breast cancer cells and leukemia cells used were purchased from Wuhan Purdue Life Technology Co., Ltd. All cell lines were tested for mycoplasma to ensure no contamination. […]
The fluorescence spectrum of POM-dTz was measured using a Hitachi F4500. […]
P0013G) premixed with a protease inhibitor cocktail. […] The supernatant was quantified and adjusted using a bicinchoninic acid (BCA) method and then boiled in an SDS loading buffer. […] After another 3 washes with TBST, the membrane was incubated with an enzymatic chemiluminescence (ECL) reagent, and the signal was detected instantly by a chemiluminescence imager (JP-K600, Jiapeng, Shanghai, China).
The signal values were quantified by ImageJ software. The expression level of a target protein was determined by the ratio of its signal value to GAPDH’s. […]

[1] = Pharmacokinetics in SD rats; format: in vivo, Sprague–Dawley (SD) rats; conditions: for half-life / AUC(0-inf) / AUC(0-t) / Cmax / Tmax / bioavailability / MRT inf / C0 / Vd / clearance: male, Sprague-Dawley, rat, plasma; for MRT inf: read-out: MRTinf_obs; for clearance: read-out: CL_obs
Method: Given the favorable cellular performance of the POM-dmTz and JQ1-TCO stoichiometric ratio, we further investigated their in vivo pharmacokinetic (PK) profiles (Figure ). […] Blood samples were collected from the jugular vein at 5 min, 15 min, 30 min, 1, 2, 4, 7, and 24 h postdosing for drug concentration analysis.
This pharmacokinetic study protocol used SPF grade male SD rats (6-8 weeks old, weight 200-300g, supplied by a biotechnology company in Beijing) to evaluate the metabolic characteristics of compound GP262 through intravenous injection (IV) and intraperitoneal injection (IP). The IV group received a dose of 5 mg/kg (2.5 mg/mL concentration, 2 mL/kg administration), while the IP group […]
consisted of 3 fasted animals. The IV group solvent was a mixed system containing 10% DMSO, 60% PEG400, and 30% water. Collect whole blood samples at 5 minutes, 15 minutes, 0.5 hours, 1, 2, 4, 7, and 24 hours after administration. Immediately after collection with EDTA-K2 anticoagulant tube, centrifuge at 4 ℃ and 4000 × g for 5 minutes. Separate the plasma and transfer it to an anticoagulant free EP tube. Store it at -75 ± 15 ℃ for testing at ultra-low temperature. Throughout the experiment, a dual drug group parallel control was set up, and standardized operating procedures were used to ensure the timeliness and storage stability of plasma separation, providing standardized biological samples for subsequent LC-MS/MS analysis. […]

Row | Structure (SMILES) | BRD4 degradation by single component alone (BRD4) | half-life ([1]; IP 10 mg/kg) [min] | AUC(0-inf) ([1]; IV 5 mg/kg, mean) [ng·h/mL] | AUC(0-t) ([1]; IV 5 mg/kg, mean) [ng·h/mL] | C0 ([1]; IV 5 mg/kg, mean) [ng/mL] | Vd ([1]; IV 5 mg/kg, mean) [L/kg] | half-life ([1]; IV 5 mg/kg, mean) [min] | clearance ([1]; IV 5 mg/kg, mean) [mL/min/kg] | MRT inf ([1]; IV 5 mg/kg, mean) [min] | other results
1 | Cc1sc2c(c1C)C(c1ccc(Cl)cc1)=NC(CC(=O)NCCNC(=O)OC1CCC=CCCC1)c1nnc(C)n1-2 (stereo not shown) [JQ1-TCO] | neither component alone triggered detectable degradation | ~124 | 1240 | 1240 | 2030 | 10.3 | 118 | 69 | 44 | AUC(0-inf) ([1]; IP 20 mg/kg, mean): 7670 ng·h/mL; AUC(0-t) ([1]; IP 20 mg/kg, mean): 7660 ng·h/mL; Cmax ([1]; IP 20 mg/kg, mean): 1860 ng/mL; Tmax ([1]; IP 20 mg/kg, mean): 25 min; bioavailability ([1]; IP 20 mg/kg, mean): 64%; half-life ([1]; IP 20 mg/kg, mean): 124 min; MRT inf ([1]; IP 20 mg/kg, mean): 193 min
2 | Cc1nnc(CNC(=O)CCOCC(COCCC(=O)NCc2nnc(C)nn2)NC(=O)COc2cccc3c2C(=O)N(C2CCC(=O)NC2=O)C3=O)nn1 (stereo not shown) [POM-dmTz] | neither component alone triggered detectable degradation | 22.6 | 500 | 496 | 1850 | 9.39 | 40.2 | 171 | 21.3 | T1/2 ([1]; IP 10 mg/kg): shorter half-life; AUC(0-inf) ([1]; IP 10 mg/kg, mean): 406 ng·h/mL; AUC(0-t) ([1]; IP 10 mg/kg, mean): 405 ng·h/mL; Cmax ([1]; IP 10 mg/kg, mean): 398 ng/mL; Tmax ([1]; IP 10 mg/kg, mean): 25 min; bioavailability ([1]; IP 10 mg/kg, mean): 40.5%
